The nature of data set [1]: Preclinical solubility studies of Compound A. The class given is physicochemical. The note with it: certain preclinical studies.
The nature of data set [2]: Non-sink dissolution (microcentrifuge assay, pH 2 then FaSSIF pH 6.5). The class given is physicochemical. To be noted: after FaSSIF pH 6.5 transfer. As for the experimental part: Non-sink dissolution is performed by adding the test composition to a solution of 0.01 N HCl pH 2 (e.g., in a centrifuge tube) and analyzing for 7-[[(1S)-1-[4-[(1S)-2-cyclopropyl-1-(4-prop-2-enoylpiperazin-1-yl)ethyl]phenyl]ethyl]amino]-1-ethyl-4H-pyrimido[4,5-d][1,3]oxazin-2-one solution concentration, by HPLC, at approximately time zero, 20 and 40 minutes. After approximately 40 minutes, a solution of fasted state simulated intestinal fluid (FaSSIF) pH 6.5, with 0.224 wt % bile salts, is added to the pH 2 solution. The 7-[[(1S)-1-[4-[(1S)-2-cyclopropyl-1-(4-prop-2-enoylpiperazin-1-yl)ethyl]phenyl]ethyl]amino]-1-ethyl-4H-pyrimido[4,5-d][1,3]oxazin-2-one concentration is monitored, by HPLC, at approximately 50, 70, 90 and 120 minutes after time zero. At each timepoint the samples are centrifuged at 18,500 g-force for 3 minutes to remove undissolved solids from the sample. For analysis, a supernatant sample (100 μL) is diluted 5× using 1:1 acetonitrile/H2O and analyzed. The non-sink dissolution test is completed at room temperature.

Take `C=CC(=O)N1CCN([C@@H](CC2CC2)c2ccc([C@H](C)Nc3ncc4c(n3)N(CC)C(=O)OC4)cc2)CC1` [TC1, 7-[[(1S)-1-[4-[(1S)-2-cyclopropyl-1-(4-prop-2-enoylpiperazin-1-yl)ethyl]phenyl]ethyl]amino]-1-ethyl-4H-pyrimido[4,5-d][1,3]oxazin-2-one]: the “solubility, acidic versus neutral environment” value in data set [1] was “more soluble in an acidic environment than a neutral one”.
Regarding `C=CC(=O)N1CCN([C@@H](CC2CC2)c2ccc([C@H](C)Nc3ncc4c(n3)N(CC)C(=O)OC4)cc2)CC1` [TC2, 7-[[(1S)-1-[4-[(1S)-2-cyclopropyl-1-(4-prop-2-enoylpiperazin-1-yl)ethyl]phenyl]ethyl]amino]-1-ethyl-4H-pyrimido[4,5-d][1,3]oxazin-2-one, 2,5-dihydroxybenzoic acid (1:2)], in data set [2], the “solution concentration at the 70 minute timepoint at elevated pH as compared to TC1” value was “increased solution concentration”.

The record behind these values is patent US11746115B2, “Solid forms of 7-[[(1S)-1-[4-[(1S)-2-cyclopropyl-1-(4-prop-2-enoylpiperazin-1-yl)ethyl]phenyl]ethyl]amino]-1-ethyl-4H-pyrimido[4,5-d][1,3]oxazin-2-one” (Eli Lilly and Company, priority 2021, dated 2023).
